Data set [1] is described as follows: Metabolic stability assay, human microsomes. It counts as in vitro ADME. The settings on record: human, microsomes; for half-life at 10 µM: both sexes; for Metabolic Stability 60 min hum [% remain.] / Metabolic Stability T½ [min] hum: both, 10 µM; for Metabolic Stability 60 min hum [% remain.]: 1 h. As to the method: (§1) 4. Plasma and Metabolic Stability Assays
(§2) The assays were conducted according to literature precedents (F. P. Guengerich, Analysis and Characterization of Enzymes; in: Principles and Methods of Toxicology; A. W. Hayes (Ed.) Raven Press: New York, 1989, 777-813; R. Singh et al., In vitro metabolism of a potent HIV-protease inhibitor (141W94) using rat, monkey and human liver S9, Rapid Commun. Mass Spectrom. 1996, 10, 1019-1026).
(§3) Metabolic Stability Assay
(§4) Microsomes from a human 50 donor mixed gender pool and 1:1 mixtures of microsomes from CD-1 mouse single-gender pools are purchased from Celsis (Belgium). The enzymatic reaction is performed in a buffer containing an NADPH regeneration system and microsomes with the following end concentrations: 100 mM potassium phosphate buffer (all from Sigma), 1 mg/mL glucose-6-phosphate, 1 mg/mL β-nicotinamide adenine dinucleotide phosphate (NADP), 0.65 mg/mL magnesium chloride, 0.8 units/mL of glucose-6-phosphate dehydrogenase (prediluted with 5 mM citrate buffer), 10 μM compound and 1 mg/ml microsomal protein. Compounds are incubated at 37° C. in duplicates and samples are taken after 0, 20 and 60 minutes. After acetonitrile precipitation (2 volumes) and HPLC/MS/MS analysis metabolic turnover is expressed in % of the initial 0 minutes value and half life T½ (min) is calculated. Verapamil for human and propranolol for mouse are used as reference and are assayed with every experimental set.

A short description of data set [2]: in vitro. Type of data set: in vitro ADME, human. The note with it: human, plasma, 10 µM; for Plasma Stability 240 min hum [% remain.]: 4 h.
Data set [3] can be described thus: Metabolic stability assay, CD-1 mouse microsomes. It counts as in vitro ADME. The note with it: CD-1, mouse, microsomes; for Metabolic Stability T½ [min] mouse / Metabolic Stability 60 min mouse [% remain.]: both, 10 µM; for Metabolic Stability 60 min mouse [% remain.]: 1 h; for half-life at 10 µM: both sexes. As for the experimental part:
as §1, §2, §3, §4

Data set [4] is described as follows: in vitro. Type of data set: in vitro ADME, mouse. The note with it: CD-1, mouse, plasma; for Plasma Stability T½ [min] mouse / Plasma Stability 240 min mouse [% remain.]: both, 10 µM; for Plasma Stability 240 min mouse [% remain.]: 4 h.

A value given as a limit tells only on which side of the number the result lay.
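Throughout, for Plasma Stability 240 min mouse [% remain.]: sodium citrate stabilized mouse plasma, parent compound quantified by HPLC/MS/MS relative to its peak area at time zero, run in triplicate.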
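Throughout, for Plasma Stability T½ [min] mouse: sodium citrate stabilized mouse plasma, parent compound quantified by HPLC/MS/MS relative to its peak area at time zero, run in triplicate.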

For `CC(C)CN1C[C@H]2C[C@H]1COc1ccc(F)cc1C(=O)N(C)CCC[C@H](NC(=O)Cc1ccccc1)C(=O)N2` [Ex. 407, N-[(1S,15S,18R)-7-fluoro-20-isobutyl-11-methyl-10,16-dioxo-3-oxa-11,17,20-triazatricyclo[16.2.1.0^4,9]henicosa-4,6,8-trien-15-yl]-2-phenylacetamide], in data set [1], the half-life at 10 µM was determined as 0.85 h and the “Metabolic Stability 60 min hum [% remain.]” value is on record as 47 % remain. In data set [2], the Plasma Stability T½ [min] hum was > 240 min and the “Plasma Stability 240 min hum [% remain.]” value turned out to be 80 % remain. Besides, in data set [3], the Metabolic Stability T½ [min] mouse is > 60 min and the “Metabolic Stability 60 min mouse [% remain.]” value came out at 84 % remain. Moreover, in data set [4], the Plasma Stability T½ [min] mouse is > 240 min and the “Plasma Stability 240 min mouse [% remain.]” value came out at 98 % remain.
On to `CCCCCCCCCC(=O)N[C@H]1C[C@H]2COc3ccc(F)cc3C(=O)N(C)[C@@H](C(=O)NCc3ccc4ccccc4c3)CCC(=O)N(C)CC(=O)N2C1` [Ex. 102, (2S,11R,19aS)-2-(decanoylamino)-15-fluoro-7,12-dimethyl-N-(2-naphthylmethyl)-5,8,13-trioxo-2,3,6,7,8,9,10,11,12,13,19,19a-dodecahydro-1H,5H-pyrrolo[2,1-c][1,4,7,12] benzoxatriazacyclopentadecine-11-carboxamide], for which, in data set [1], the half-life at 10 µM amounted to 0.383 h and the “Metabolic Stability 60 min hum [% remain.]” value was 4 % remain. Further, in data set [2], the Plasma Stability T½ [min] hum is > 240 min and the “Plasma Stability 240 min hum [% remain.]” value came out at 65 % remain. In data set [3], the half-life at 10 µM was 0.7 h and the “Metabolic Stability 60 min mouse [% remain.]” value stood at 39 % remain. Besides, in data set [4], the Plasma Stability T½ [min] mouse was > 240 min and the “Plasma Stability 240 min mouse [% remain.]” value is listed as 75 % remain.
`CN1CCC[C@H](N)C(=O)N2C[C@@H](OCc3ccc(-c4cccnc4)cc3)C[C@H]2COc2cccc(c2)C1=O` [Ex. 578, (4S,6S,10S)-10-amino-14-methyl-6-{[4-(3-pyridinyl)benzyl]oxy}-2-oxa-8,14-diazatricyclo[14.3.1.0^4,8]icosa-1(20),16,18-triene-9,15-dione]: in data set [1], the half-life at 10 µM worked out at 0.867 h and the “Metabolic Stability 60 min hum [% remain.]” value was found to be 46 % remain. Further, in data set [2], the Plasma Stability T½ [min] hum is > 240 min and the “Plasma Stability 240 min hum [% remain.]” value was found to be 100 % remain. In data set [3], the Metabolic Stability T½ [min] mouse was > 60 min and the “Metabolic Stability 60 min mouse [% remain.]” value was 55 % remain. Further, in data set [4], the Plasma Stability T½ [min] mouse is > 240 min and the “Plasma Stability 240 min mouse [% remain.]” value worked out at 86 % remain.
Consider `CN1CC(=O)N2C[C@H](NC(=O)CCc3ccncc3)C[C@H]2COc2ccc(cc2)C(=O)N(C)[C@H](C(=O)NCc2ccc3ccccc3c2)CCC1=O` [Ex. 260, (4S,6R,15S)-11,16-dimethyl-N-(2-naphthylmethyl)-9,12,17-trioxo-6-{[3-(4-pyridinyl)propanoyl]amino}-2-oxa-8,11,16-triazatricyclo[16.2.2.0^4,8]docosa-1(20),18,21-triene-15-carboxamide], for which, in data set [1], the half-life at 10 µM is 0.617 h and the “Metabolic Stability 60 min hum [% remain.]” value is 19 % remain. For the same compound, in data set [2], the Plasma Stability T½ [min] hum was > 240 min and the “Plasma Stability 240 min hum [% remain.]” value turned out to be 100 % remain. Besides, in data set [3], the Metabolic Stability T½ [min] mouse was > 60 min and the “Metabolic Stability 60 min mouse [% remain.]” value amounted to 69 % remain. Moreover, in data set [4], the Plasma Stability T½ [min] mouse is > 240 min and the “Plasma Stability 240 min mouse [% remain.]” value was determined as 100 % remain.
Take `CCCCC(=O)N[C@@H]1C[C@H]2COc3ccc(F)cc3C(=O)N(C)[C@H](C(=O)N(C)CCN(C)C)CCC(=O)N(C)CC(=O)N2C1` [Ex. 78, (2R,11S,19aS)-N-[2-(dimethylamino)ethyl]-15-fluoro-N,7,12-trimethyl-5,8,13-trioxo-2-(pentanoylamino)-2,3,6,7,8,9,10,11,12,13,19, 19a-dodecahydro-1H,5H-pyrrolo[2,1-c][1,4,7,12]benzoxatriazacyclopentadecine-11-carboxamide]: in data set [1], the Metabolic Stability T½ [min] hum was > 60 min and the “Metabolic Stability 60 min hum [% remain.]” value was 78 % remain. Also, in data set [2], the Plasma Stability T½ [min] hum is > 240 min and the “Plasma Stability 240 min hum [% remain.]” value amounted to 65 % remain. Moreover, in data set [3], the Metabolic Stability T½ [min] mouse is > 60 min and the “Metabolic Stability 60 min mouse [% remain.]” value worked out at 100 % remain. Further, in data set [4], the Plasma Stability T½ [min] mouse is > 240 min and the “Plasma Stability 240 min mouse [% remain.]” value is 100 % remain.
On to `CCN(CC)[C@H]1C[C@H]2COc3ccc(F)cc3C(=O)N(C)[C@H](C(=O)N3CCCC3)CCC(=O)N(C)CC(=O)N2C1` [Ex. 43, (2S,11S,19aS)-2-(diethylamino)-15-fluoro-7,12-dimethyl-11-(1-pyrrolidinylcarbonyl)-2,3,6,7,9,10,11,12,19,19a-decahydro-1H,5H-pyrrolo [2,1-c] [1,4,7,12]benzoxatriazacyclopentadecine-5,8,13-trione], for which, in data set [1], the Metabolic Stability T½ [min] hum is > 60 min and the “Metabolic Stability 60 min hum [% remain.]” value was determined as 100 % remain. In data set [2], the Plasma Stability T½ [min] hum is > 240 min and the “Plasma Stability 240 min hum [% remain.]” value came to 82 % remain. In data set [3], the Metabolic Stability T½ [min] mouse was > 60 min and the “Metabolic Stability 60 min mouse [% remain.]” value was determined as 98 % remain. In data set [4], the Plasma Stability T½ [min] mouse was > 240 min and the “Plasma Stability 240 min mouse [% remain.]” value is reported as 89 % remain.
Take `CCCCC(=O)N[C@H]1C[C@H]2COc3cccc(c3)C(=O)N(C)CC[C@H](N)C(=O)N2C1` [Ex. 167, N-[(4S,6S,10S)-10-amino-13-methyl-9,14-dioxo-2-oxa-8,13-diazatricyclo[13.3.1.0^4,8]nonadeca-1(19),15,17-trien-6-yl] pentanamide]: in data set [1], the Metabolic Stability T½ [min] hum is > 60 min and the “Metabolic Stability 60 min hum [% remain.]” value is 58 % remain. For the same compound, in data set [3], the Metabolic Stability T½ [min] mouse is > 60 min and the “Metabolic Stability 60 min mouse [% remain.]” value is 65 % remain. In data set [4] (both sexes), this compound yielded a half-life at 10 µM of 0.583 h. Further, the “Plasma Stability 240 min mouse [% remain.]” value in data set [4] is given as 17 % remain.
Consider `CN1CC(=O)N2C[C@H](NC(=O)Cc3ccc4ccccc4c3)C[C@H]2COc2ccc(cc2)C(=O)N(C)[C@H](C(=O)N2CCCC2)CCC1=O` [Ex. 264, N-[(4S,6R,15S)-11,16-dimethyl-9,12,17-trioxo-15-(1-pyrrolidinylcarbonyl)-2-oxa-8,11,16-triazatricyclo[16.2.2.0^4,8]docosa-1(20),18,21-trien-6-yl]-2-(2-naphthyl)acetamide], for which, in data set [2], the Plasma Stability T½ [min] hum is > 240 min and the “Plasma Stability 240 min hum [% remain.]” value is recorded as 94 % remain. In data set [3], the half-life at 10 µM turned out to be 0.7 h and the “Metabolic Stability 60 min mouse [% remain.]” value was determined as 32 % remain. Further, in data set [4], the Plasma Stability T½ [min] mouse is > 240 min and the “Plasma Stability 240 min mouse [% remain.]” value was determined as 88 % remain.

The values are drawn from US9512139B2, “Conformationally constrained, fully synthetic macrocyclic compounds” (POLYPHOR AG, priority 2009, dated 2016).
